From PubChem BioAssay AID248 (DTP/NCI, 2004)
Inconclusive results and toxic doses are left out.

Tested on: L1210 leukemia ip in BDF1 mice, survival T/C
Experiment: NCI In Vivo Anticancer Drug Screen. Data for tumor model L1210 Leukemia (intraperitoneal) in B6D2F1 (BDF1) mice
Conditions: endpoint: mean survival time, higher = longer survival
In short: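 Tumor cells were implanted, animals were treated, and survival was followed. The result divides the treated measurement by the vehicle-control measurement.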

[1] = dose: 100.0 mg/kg/injection, schedule: Q01DX001 (ip), vehicle: saline
[2] = dose: 200.0 mg/kg/injection, schedule: Q01DX001 (ip), vehicle: saline
[3] = dose: 400.0 mg/kg/injection, schedule: Q01DX001 (ip), vehicle: saline
[4] = dose: 100.0 mg/kg/injection, schedule: Q01DX009 (ip), vehicle: Klucel (hydroxypropylcellulose) (HPC)
[5] = dose: 200.0 mg/kg/injection, schedule: Q01DX009 (ip), vehicle: Klucel (hydroxypropylcellulose) (HPC)

## COc1ccc(N=Nc2ccccn2)cc1
dose: 50.0 mg/kg/injection, schedule: Q01DX001 (ip), vehicle: Klucel (hydroxypropylcellulose) (HPC)
  T/C: 103 % of control
dose: 100.0 mg/kg/injection, schedule: Q01DX001 (ip), vehicle: Klucel (hydroxypropylcellulose) (HPC)
  T/C: 105 % of control
dose: 200.0 mg/kg/injection, schedule: Q01DX001 (ip), vehicle: Klucel (hydroxypropylcellulose) (HPC)
  T/C: 103 % of control

## CC1=CC(=O)C2CCC=C(C(=O)O)C2(C)C1=O (stereo unspecified)
dose: 100.0 mg/kg/injection, schedule: Q04DX003 (ip), vehicle: alcohol
  T/C: 97 % of control
dose: 200.0 mg/kg/injection, schedule: Q04DX003 (ip), vehicle: alcohol
  T/C: 102 % of control
dose: 400.0 mg/kg/injection, schedule: Q04DX003 (ip), vehicle: alcohol
  T/C: 97 % of control

## Nc1cnccc1NCC(O)c1ccccc1 (stereo unspecified)
[1]
  T/C: 95 % of control
[2]
  T/C: 101 % of control
[3]
  T/C: 86 % of control

## COc1cc2c3c(c4ccc(O)cc4c2cc1OC)[C@@H](O)[C@@H]1CCCN1C3
dose: 2.5 mg/kg/injection, schedule: Q01DX005 (ip), vehicle: water
  T/C: 106 % of control
dose: 2.5 mg/kg/injection, schedule: Q01DX009 (ip), vehicle: water
  T/C: 95 % of control
dose: 2.5 mg/kg/injection, schedule: Q01DX015 (ip), vehicle: water
  T/C: 105 % of control
dose: 5.0 mg/kg/injection, schedule: Q01DX001 (ip), vehicle: water
  T/C: 98 % of control
dose: 5.0 mg/kg/injection, schedule: Q01DX005 (ip), vehicle: water
  T/C: 104 % of control
dose: 5.0 mg/kg/injection, schedule: Q01DX009 (ip), vehicle: water
  T/C: 119 % of control
dose: 5.0 mg/kg/injection, schedule: Q01DX009 (sc), vehicle: water
  T/C: 109 % of control
dose: 5.0 mg/kg/injection, schedule: Q01DX015 (ip), vehicle: water
  T/C: 120 % of control
dose: 5.0 mg/kg/injection, schedule: Q02DX005 (ip), vehicle: water
  T/C: 114 % of control
dose: 5.0 mg/kg/injection, schedule: Q## X003 (ip), vehicle: water
  T/C: 111 % of control
dose: 6.0 mg/kg/injection, schedule: Q01DX Z (ip), vehicle: water
  T/C: 124 % of control
dose: 6.7 mg/kg/injection, schedule: Q01DX015 (ip), vehicle: water
  T/C: 112 % of control
dose: 7.1 mg/kg/injection, schedule: Q01DX015 (ip), vehicle: water
  T/C: 112 % of control
dose: 10.0 mg/kg/injection, schedule: Q01DX001 (ip), vehicle: water
  T/C: 108 % of control
dose: 10.0 mg/kg/injection, schedule: Q01DX005 (ip), vehicle: water
  T/C: 109 % of control
dose: 10.0 mg/kg/injection, schedule: Q01DX009 (ip), vehicle: water
  T/C: 119 % of control
dose: 10.0 mg/kg/injection, schedule: Q01DX009 (oral), vehicle: water
  T/C: 114 % of control
dose: 10.0 mg/kg/injection, schedule: Q01DX009 (sc), vehicle: water
  T/C: 122 % of control
dose: 10.0 mg/kg/injection, schedule: Q01DX015 (ip), vehicle: water
  T/C: 112 % of control
dose: 10.0 mg/kg/injection, schedule: Q## X003 (ip), vehicle: water
  T/C: 101 % of control
dose: 12.0 mg/kg/injection, schedule: Q01DX Z (ip), vehicle: water
  T/C: 151 % of control
dose: 15.0 mg/kg/injection, schedule: Q01DX005 (ip), vehicle: water
  T/C: 117 % of control
dose: 15.0 mg/kg/injection, schedule: Q01DX009 (ip), vehicle: water
  T/C: 120 % of control
dose: 15.0 mg/kg/injection, schedule: Q01DX009 (sc), vehicle: water
  T/C: 119 % of control
dose: 15.0 mg/kg/injection, schedule: Q01DX015 (ip), vehicle: water
  T/C: 109 % of control
dose: 15.0 mg/kg/injection, schedule: Q02DX005 (ip), vehicle: water
  T/C: 124 % of control
dose: 15.0 mg/kg/injection, schedule: Q## X003 (ip), vehicle: water
  T/C: 119 % of control
dose: 20.0 mg/kg/injection, schedule: Q01DX001 (ip), vehicle: water
  T/C: 104 % of control
dose: 20.0 mg/kg/injection, schedule: Q01DX009 (ip), vehicle: water
  T/C: 114 % of control
dose: 20.0 mg/kg/injection, schedule: Q01DX009 (oral), vehicle: water
  T/C: 109 % of control
dose: 20.0 mg/kg/injection, schedule: Q01DX009 (sc), vehicle: water
  T/C: 88 % of control
dose: 20.0 mg/kg/injection, schedule: Q01DX Z (ip), vehicle: water
  T/C: 110 % of control
dose: 20.0 mg/kg/injection, schedule: Q## X003 (ip), vehicle: water
  T/C: 117 % of control
dose: 22.5 mg/kg/injection, schedule: Q01DX015 (ip), vehicle: water
  T/C: 123 % of control
dose: 25.0 mg/kg/injection, schedule: Q01DX015 (ip), vehicle: water
  T/C: 96 % of control
dose: 30.0 mg/kg/injection, schedule: Q01DX009 (oral), vehicle: water
  T/C: 100 % of control
dose: 40.0 mg/kg/injection, schedule: Q01DX001 (ip), vehicle: water
  T/C: 114 % of control

## CC1(CO)COC(c2ccccc2)=N1 (stereo unspecified)
dose: 100.0 mg/kg/injection, schedule: Q01DX009 (ip), vehicle: other
  T/C: 109 % of control
dose: 200.0 mg/kg/injection, schedule: Q01DX009 (ip), vehicle: other
  T/C: 103 % of control
dose: 400.0 mg/kg/injection, schedule: Q01DX009 (ip), vehicle: other
  T/C: 109 % of control

## CCN(CC)CCCNc1nc(C(Cl)(Cl)Cl)nc2ccc(I)cc12
[4]
  T/C: 96 % of control
[5]
  T/C: 100 % of control

## Cc1ncc2c(n1)NC(c1ccc(Cl)cc1)=NC2
dose: 75.0 mg/kg/injection, schedule: Q01DX001 (ip), vehicle: other
  T/C: 91 % of control
dose: 150.0 mg/kg/injection, schedule: Q01DX001 (ip), vehicle: other
  T/C: 100 % of control
dose: 300.0 mg/kg/injection, schedule: Q01DX001 (ip), vehicle: other
  T/C: 96 % of control

## CC(NCCOc1ccccc1)c1ccccc1 (stereo unspecified)
dose: 100.0 mg/kg/injection, schedule: Q04DX002 (ip), vehicle: saline with Tween-80
  T/C: 108 % of control
dose: 200.0 mg/kg/injection, schedule: Q04DX002 (ip), vehicle: saline with Tween-80
  T/C: 105 % of control

## CCC1(C)CC1(Cl)Cl (stereo unspecified)
dose: 100.0 mg/kg/injection, schedule: Q04DX003 (ip), vehicle: other
  T/C: 105 % of control
dose: 200.0 mg/kg/injection, schedule: Q04DX003 (ip), vehicle: other
  T/C: 102 % of control
dose: 400.0 mg/kg/injection, schedule: Q04DX003 (ip), vehicle: other
  T/C: 100 % of control

## O=C(OCCCC(C(=O)c1ccccc1)=P(c1ccccc1)(c1ccccc1)c1ccccc1)c1ccccc1
dose: 100.0 mg/kg/injection, schedule: Q01DX001 (ip), vehicle: saline with Tween-80
  T/C: 104 % of control
dose: 200.0 mg/kg/injection, schedule: Q01DX001 (ip), vehicle: saline with Tween-80
  T/C: 93 % of control
dose: 400.0 mg/kg/injection, schedule: Q01DX001 (ip), vehicle: saline with Tween-80
  T/C: 93 % of control

## CC(=O)Nc1ccc(S(=O)(=O)SC(F)(F)F)cc1
dose: 5.0 mg/kg/injection, schedule: Q01DX001 (ip), vehicle: saline
  T/C: 97 % of control
dose: 10.0 mg/kg/injection, schedule: Q01DX001 (ip), vehicle: saline
  T/C: 98 % of control
dose: 20.0 mg/kg/injection, schedule: Q01DX001 (ip), vehicle: saline
  T/C: 101 % of control

## O=C(NCCCl)C(=O)NCCCl
dose: 100.0 mg/kg/injection, schedule: Q04DX002 (ip), vehicle: Klucel (hydroxypropylcellulose) (HPC)
  T/C: 104 % of control
dose: 200.0 mg/kg/injection, schedule: Q04DX002 (ip), vehicle: Klucel (hydroxypropylcellulose) (HPC)
  T/C: 107 % of control
dose: 400.0 mg/kg/injection, schedule: Q04DX002 (ip), vehicle: Klucel (hydroxypropylcellulose) (HPC)
  T/C: 93 % of control

## NCCCN=C=NCc1ccccc1
[1]
  T/C: 100 % of control

## NC1=C(c2ccccc2)C(=O)C(N)=C(c2ccccc2)C1=O
dose: 100.0 mg/kg/injection, schedule: Q01DX001 (ip), vehicle: carboxymethylcellulose (CMC)
  T/C: 96 % of control
dose: 200.0 mg/kg/injection, schedule: Q01DX001 (ip), vehicle: carboxymethylcellulose (CMC)
  T/C: 88 % of control
dose: 400.0 mg/kg/injection, schedule: Q01DX001 (ip), vehicle: carboxymethylcellulose (CMC)
  T/C: 88 % of control

## CCCCCCCCCc1cc(C)cc(Cc2cc(C)cc(CCCCCCCCC)c2O)c1O
[1]
  T/C: 98 % of control
[2]
  T/C: 98 % of control
[3]
  T/C: 101 % of control

## Cn1c(C(=O)O)cc2ccccc21
[4]
  T/C: 110 % of control
[5]
  T/C: 112 % of control
dose: 400.0 mg/kg/injection, schedule: Q01DX009 (ip), vehicle: Klucel (hydroxypropylcellulose) (HPC)
  T/C: 96 % of control

## Clc1nc2nnnn2c2ccccc12
dose: 20.0 mg/kg/injection, schedule: Q04DX003 (ip), vehicle: saline
  T/C: 101 % of control
dose: 40.0 mg/kg/injection, schedule: Q04DX003 (ip), vehicle: saline
  T/C: 101 % of control
dose: 80.0 mg/kg/injection, schedule: Q04DX003 (ip), vehicle: saline
  T/C: 104 % of control
